Columns and labels:
[1] = Apparent permeability from apical to basolateral side of the human Caco2 cells; format: ADME, cell-based; settings: caco-2
[2] = target: Coagulation factor X (Homo sapiens, UniProt P00742); assay: Inhibition of purified human factor Xa
[3] = Inhibition of human chymotrypsin
[4] = Clearance in dog at 0.5 mg/kg, iv and 0.2 mg/kg, po administered as cassette dosing; format: ADME, organism-based, Canis lupus familiaris; settings: in vivo
[5] = target: Coagulation factor IX (Homo sapiens, UniProt P00740); assay: Inhibition of human factor 9a
Coagulation factor IX, sequence (P00740 47-191 limits assumed): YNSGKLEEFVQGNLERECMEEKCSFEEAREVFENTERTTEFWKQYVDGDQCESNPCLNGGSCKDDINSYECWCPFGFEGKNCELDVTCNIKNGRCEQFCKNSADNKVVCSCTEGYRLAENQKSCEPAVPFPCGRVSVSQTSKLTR
Coagulation factor IX, sequence (P00740 227-461 limits assumed): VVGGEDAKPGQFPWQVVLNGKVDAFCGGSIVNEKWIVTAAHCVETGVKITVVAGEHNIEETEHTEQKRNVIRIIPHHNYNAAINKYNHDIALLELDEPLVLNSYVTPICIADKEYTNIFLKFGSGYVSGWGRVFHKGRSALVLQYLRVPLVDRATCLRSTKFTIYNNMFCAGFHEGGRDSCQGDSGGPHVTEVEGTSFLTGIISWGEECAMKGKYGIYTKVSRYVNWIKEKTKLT

[6] = target: Plasma kallikrein (Homo sapiens, UniProt P03952); assay: Inhibition of human plasma kallikrein
Plasma kallikrein, sequence (P03952 20-390 limits assumed): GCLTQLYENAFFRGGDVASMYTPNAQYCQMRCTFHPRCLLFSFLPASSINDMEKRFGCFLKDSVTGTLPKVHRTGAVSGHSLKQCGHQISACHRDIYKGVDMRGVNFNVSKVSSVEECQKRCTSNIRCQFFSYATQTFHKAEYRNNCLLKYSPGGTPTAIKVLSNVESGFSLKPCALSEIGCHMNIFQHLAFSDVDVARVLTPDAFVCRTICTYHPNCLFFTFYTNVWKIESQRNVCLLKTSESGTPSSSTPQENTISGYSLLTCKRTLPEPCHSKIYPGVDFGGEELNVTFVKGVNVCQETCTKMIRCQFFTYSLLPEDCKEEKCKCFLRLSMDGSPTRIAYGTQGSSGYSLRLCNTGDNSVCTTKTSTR
Plasma kallikrein, sequence (P03952 391-638 limits assumed): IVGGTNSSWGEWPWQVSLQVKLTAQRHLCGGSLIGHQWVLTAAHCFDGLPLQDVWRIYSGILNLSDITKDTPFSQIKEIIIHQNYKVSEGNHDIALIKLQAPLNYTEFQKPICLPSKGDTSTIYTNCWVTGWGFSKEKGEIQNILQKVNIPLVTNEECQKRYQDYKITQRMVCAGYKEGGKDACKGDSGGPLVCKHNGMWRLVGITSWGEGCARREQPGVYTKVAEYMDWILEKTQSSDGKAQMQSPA

[7] = target: Prothrombin (Homo sapiens, UniProt P00734); assay: Inhibition of human thrombin
[8] = system: Plasma; assay: Anticoagulant activity in human plasma assessed as concentration required to double prothrombin time; format: functional
[9] = Volume of distribution at steady state in dog at 0.5 mg/kg, iv and 0.2 mg/kg, po administered as cassette dosing; format: ADME, organism-based, Canis lupus familiaris; settings: in vivo, read-out: Vdss
[10] = target: Tissue-type plasminogen activator (Homo sapiens, UniProt P00750); assay: Inhibition of human tissue plasminogen activator
Tissue-type plasminogen activator, sequence (P00750 whole entry): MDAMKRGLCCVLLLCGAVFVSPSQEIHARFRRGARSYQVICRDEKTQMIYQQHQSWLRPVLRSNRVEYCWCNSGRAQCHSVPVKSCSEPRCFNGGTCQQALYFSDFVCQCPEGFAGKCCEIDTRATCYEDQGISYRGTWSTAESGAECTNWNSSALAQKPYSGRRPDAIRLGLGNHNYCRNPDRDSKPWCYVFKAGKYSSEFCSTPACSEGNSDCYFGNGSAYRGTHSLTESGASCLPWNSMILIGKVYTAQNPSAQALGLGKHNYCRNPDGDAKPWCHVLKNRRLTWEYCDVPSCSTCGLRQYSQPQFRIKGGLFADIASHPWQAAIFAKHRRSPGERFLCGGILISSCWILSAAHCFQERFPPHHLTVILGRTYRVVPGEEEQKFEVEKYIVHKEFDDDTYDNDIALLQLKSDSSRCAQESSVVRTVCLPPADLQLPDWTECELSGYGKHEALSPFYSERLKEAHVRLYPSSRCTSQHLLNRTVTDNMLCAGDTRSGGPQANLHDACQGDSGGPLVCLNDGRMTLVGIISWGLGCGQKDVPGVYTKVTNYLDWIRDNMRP

[11] = Inhibition of human factor 7a
[12] = Oral bioavailability in dog at 0.2 mg/kg administered as cassette dosing; format: ADME, organism-based, Canis lupus familiaris; settings: in vivo
[13] = target: Vitamin K-dependent protein C (Homo sapiens, UniProt P04070); assay: Inhibition of human activated protein C
Vitamin K-dependent protein C, sequence (P04070 43-197 limits assumed): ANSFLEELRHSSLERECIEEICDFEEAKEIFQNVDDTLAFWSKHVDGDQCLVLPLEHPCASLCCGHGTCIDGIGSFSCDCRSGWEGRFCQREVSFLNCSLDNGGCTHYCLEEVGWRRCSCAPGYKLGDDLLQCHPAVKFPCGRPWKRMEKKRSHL
Vitamin K-dependent protein C, sequence (P04070 212-461 limits assumed): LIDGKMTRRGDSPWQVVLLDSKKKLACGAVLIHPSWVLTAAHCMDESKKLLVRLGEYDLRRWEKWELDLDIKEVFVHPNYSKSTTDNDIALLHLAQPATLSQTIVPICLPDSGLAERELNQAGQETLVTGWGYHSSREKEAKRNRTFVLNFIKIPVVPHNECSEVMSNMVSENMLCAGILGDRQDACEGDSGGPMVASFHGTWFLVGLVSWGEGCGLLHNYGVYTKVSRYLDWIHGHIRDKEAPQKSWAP

[14] = Half life in dog at 0.2 mg/kg, po administered as cassette dosing; format: ADME, organism-based, Canis lupus familiaris; set-up: dose 0.2 mg/kg, route oral; settings: in vivo
[15] = target: Coagulation factor XI (Homo sapiens, UniProt P03951); assay: Inhibition of human factor 11a
Coagulation factor XI, sequence (P03951 19-387 limits assumed): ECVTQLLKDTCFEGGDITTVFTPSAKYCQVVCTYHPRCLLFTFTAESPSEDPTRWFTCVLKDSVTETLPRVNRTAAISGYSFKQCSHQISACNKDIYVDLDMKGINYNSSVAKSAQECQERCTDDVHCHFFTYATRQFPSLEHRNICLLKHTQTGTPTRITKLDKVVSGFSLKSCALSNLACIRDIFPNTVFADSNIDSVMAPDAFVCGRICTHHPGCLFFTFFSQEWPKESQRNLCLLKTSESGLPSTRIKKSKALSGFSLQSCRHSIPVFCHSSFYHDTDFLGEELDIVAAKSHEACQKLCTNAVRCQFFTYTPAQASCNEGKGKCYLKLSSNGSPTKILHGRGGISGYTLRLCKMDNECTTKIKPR
Coagulation factor XI, sequence (P03951 388-625 limits assumed): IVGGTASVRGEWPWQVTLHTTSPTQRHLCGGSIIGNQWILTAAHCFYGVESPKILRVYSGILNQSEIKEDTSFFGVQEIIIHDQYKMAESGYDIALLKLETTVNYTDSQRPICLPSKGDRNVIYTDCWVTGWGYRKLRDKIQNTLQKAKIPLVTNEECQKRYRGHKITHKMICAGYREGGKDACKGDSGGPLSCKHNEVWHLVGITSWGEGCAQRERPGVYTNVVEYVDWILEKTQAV

[16] = target: Urokinase-type plasminogen activator (Homo sapiens, UniProt P00749); assay: Inhibition of human urokinase
[17] = target: Trypsin (Homo sapiens, UniProt P07477+P07478+P35030); assay: Inhibition of human trypsin; format: protein assay

Coagulation factor X, sequence (P00742 41-179 limits assumed): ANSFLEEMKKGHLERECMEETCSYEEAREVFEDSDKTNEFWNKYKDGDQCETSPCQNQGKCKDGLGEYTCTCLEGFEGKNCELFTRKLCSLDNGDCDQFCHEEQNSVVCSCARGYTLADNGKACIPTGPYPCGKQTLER
Coagulation factor X, sequence (P00742 235-488 limits assumed): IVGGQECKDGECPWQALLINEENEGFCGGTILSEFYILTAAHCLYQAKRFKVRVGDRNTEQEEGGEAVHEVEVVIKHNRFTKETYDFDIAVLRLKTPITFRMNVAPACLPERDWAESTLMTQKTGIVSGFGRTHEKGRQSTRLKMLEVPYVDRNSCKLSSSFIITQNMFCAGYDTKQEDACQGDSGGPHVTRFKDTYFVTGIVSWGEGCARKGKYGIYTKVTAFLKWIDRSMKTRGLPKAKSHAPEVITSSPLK

Row | SMILES | Papp [1] [×10⁻⁶ cm/s] | Ki [2] [nM] | clearance [4] [mL/min/kg] | Vd [9] [L/kg] | bioavailability [12] [%] | half-life [14] [h] | Activity [8] [µM] | also measured
1 | COc1ccc(-n2nc(C(N)=O)c3c2C(=O)N(c2ccc(C(C)(C)CO)cc2)CC3)cc1 | 5.8 | 0.66 | 16.3 | 3.02 | 50 | 4.95 | 3.8 | Ki [3]: > 40000 nM; Ki [5]: > 15000 nM; Ki [6]: > 11000 nM; Ki [7]: 2580 nM; Ki [10]: > 43000 nM; Ki [11]: > 15000 nM; Ki [13]: > 37600 nM; Ki [15]: > 15000 nM; Ki [16]: > 13000 nM; Ki [17]: > 15000 nM
2 | COc1ccc(-n2nc(S(C)(=O)=O)c3c2C(=O)N(c2ccc(C(C)(C)CN(C)C)cc2)CC3)cc1 | 4.1 | 0.11 | 64.3 | 7.3 | 34 | 1.86 | 0.67 | 
3 | COc1ccc(-n2nc(C(N)=O)c3c2C(=O)N(c2ccc(C(C)(C)CN(C)C)cc2)CC3)cc1 | 5.9 | 0.07 | 84 | 6.57 | 41 | 1.04 | 0.45 | 
4 | COc1ccc(-n2nc(C(N)=O)c3c2C(=O)N(c2ccc(C(C)(C)C#N)cc2)CC3)cc1 | 18 | 1.22 |  |  |  |  | 3.4 | 
5 | COc1ccc(-n2nc(C(N)=O)c3c2C(=O)N(c2ccc(C(C)(C)CN)cc2)CC3)cc1 | 0.7 | 0.15 | 56 | 11.8 | 44 | 3.33 | 0.69 | 
6 | COc1ccc(-n2nc(C(N)=O)c3c2C(=O)N(c2ccc(C(C)(C)CN4CCCCC4=O)cc2)CC3)cc1 | 8.3 | 1.5 |  |  |  |  | 7.4 | 
7 | COc1ccc(-n2nc(C(N)=O)c3c2C(=O)N(c2ccc(C(C)(C)N(C)C)cc2)CC3)cc1 | 1.1 | 0.2 |  |  |  |  | 0.96 | 
8 | COc1ccc(-n2nc(C(N)=O)c3c2C(=O)N(c2ccc(N4CCCCC4=O)cc2)CC3)cc1 [APIXABAN] |  |  | 0.333 | 0.2 |  |  |  | 

Further compounds by falling Ki [2], results first:

Row | Papp [1] [×10⁻⁶ cm/s] | Ki [2] [nM] | clearance [4] [mL/min/kg] | Vd [9] [L/kg] | bioavailability [12] [%] | half-life [14] [h] | SMILES | Activity [8] [µM] | also measured
9 |  | 9.27 |  |  |  |  | COc1ccc(-n2nc(C(N)=O)c3c2C(=O)N(c2ccc(C(C)(C)O)cc2)CC3)cc1 |  | 
10 | 3.6 | 1.01 |  |  |  |  | COc1ccc(-n2nc(S(C)(=O)=O)c3c2C(=O)N(c2ccc(C(C)(C)CO)cc2)CC3)cc1 | 3.9 | 
11 | 1 | 0.48 | 5.33 | 0.51 | 79 | 1.7 | COc1ccc(-n2nc(C(N)=O)c3c2C(=O)N(c2ccc(C(C)(C)S(C)(=O)=O)cc2)CC3)cc1 | 3.9 | 
12 | 17 | 0.32 | 21.3 | 10.1 | 13 | 4.18 | COc1ccc(-n2nc(S(C)(=O)=O)c3c2C(=O)N(c2ccc(C(C)(C)CN4CCOCC4)cc2)CC3)cc1 | 3.7 | 
13 | 4.3 | 0.24 | 36.7 | 5.5 | 10 | 1.4 | COc1ccc(-n2nc(S(C)(=O)=O)c3c2C(=O)N(c2ccc(C(C)(C)CN4CCCC4)cc2)CC3)cc1 | 0.92 | 
14 | 1.7 | 0.07 | 127 | 12 |  |  | COc1ccc(-n2nc(C(N)=O)c3c2C(=O)N(c2ccc(C(C)(C)N4CCCC4)cc2)CC3)cc1 | 0.81 | 
15 | 17 | 0.06 | 29.3 | 5.01 | 10 | 2.8 | COc1ccc(-n2nc(C(N)=O)c3c2C(=O)N(c2ccc(C(C)(C)CN4CCOCC4)cc2)CC3)cc1 | 3.8 | 
16 | 5.6 | 0.05 |  |  |  |  | COc1ccc(-n2nc(C(N)=O)c3c2C(=O)N(c2ccc(C(C)(C)CN4CCCC4)cc2)CC3)cc1 | 0.73 | 
17 | 2.8 | 0.05 |  |  |  |  | COc1ccc(-n2nc(C(N)=O)c3c2C(=O)N(c2ccc(C(C)(C)CNC4CC4)cc2)CC3)cc1 | 0.68 | 

Reference: ChEMBL document CHEMBL3351793, “Orally bioavailable factor Xa inhibitors containing alpha-substituted gem-dimethyl P4 moieties” (Bioorg Med Chem Lett, 2014)
